Data published in patent publication US10980776B2, “Synergistic pharmaceutical combination for the treatment of squamous cell carcinoma of head and neck” (Piramal Enterprises Limited, priority 2011, dated 2021).

Key:
[1] = test system: FADU cells; assay: CCK-8 cytotoxicity assay, determination of inhibitory concentrations in FADU cells; format: cell-based, human; conditions: 72 hr; for IC50 / IC90: Homo sapiens
Experimental: (§1) Logarithmically growing cells were plated at a density of 3×10^3 cells/well and allowed to recover overnight. […] After 72 hours, cell toxicity was determined by CCK-8 (Cell Counting Kit-8) reagent (Dojindo Molecular Technologies, Japan); WST-8 (2-(2-methoxy-4-nitrophenyl)-3-(4-nitrophenyl)-5-(2, 4-disulfophenyl)]-2H-tetrazolium, monosodium salt) assay. In accordance with the manufacturer's instructions, 5 μl/well CCK-8 reagent was added and plates were incubated for 2 hours. The toxicity was determined by measuring the absorbance on Tecan Sapphire multi-fluorescence micro-plate reader (Tecan, Germany, GmbH) at a wavelength of 450 nm corrected to 650 nm and normalized to controls.
(§2) CCK-8 allows convenient assays using Dojindo's tetrazolium salt, WST [8[(2-(2-methoxy-4-nitrophenyl)-3-(4-nitrophenyl)-5-(2,4-disulfophenyl)-2H-tetrazolium, monosodium salt], which produces a water-soluble formazan dye upon bioreduction in the presence of an electron carrier, 1-Methoxy PMS. CCK-8 solution is added directly to the cells; no pre-mixing of components is required. CCK-8 is a sensitive nonradioactive colorimetric assay for determining the number of viable cells in cell proliferation and cytotoxicity assays. WST-8 is bio-reduced by cellular dehydrogenases to an orange formazan product that is soluble in tissue culture medium. The amount of formazan produced is directly proportional to the number of living cells. The detection sensitivity of cell proliferation assays using WST-8 is higher than assays using the other tetrazolium salts such as MIT, XTT, MTS or WST-1. Optical Density was determined at measurement wavelength of 450 nm and reference wave length of 630 nm.
(§3) The cells were seeded at a density of 3000 cells/well, in a 200 μL in tissue culture grade 96 well plate and were allowed to recover for 24 hrs in a humidified 5%±0.2 CO2 incubator at 37° C.±0.5° C. […] The final DMSO concentration was 0.5% in wells. Plates were incubated for 48 hrs in humidified 5%±0.2 CO2 incubator at 37±0.5° C. After 48 hrs the plates were removed from CO2 incubator and 5 μL of Cell counting Kit (CCK-8) per well was added. The same plate was kept at 37° C. for 3 hrs, and allowed to come to room temperature. The absorbance at a wavelength of 450 nm was read on Tecan safire reader. The percent cytotoxicity was calculated using the following formula.

[2] = test system: Detroit-562 cells; assay: CCK-8 cytotoxicity assay, determination of inhibitory concentrations in Detroit-562 cells; format: cell-based; conditions: 72 hr; for IC50 / IC90: Homo sapiens
Experimental: as §1, §2, §3

CC(=O)O[C@@]12CO[C@@H]1C[C@H](O)[C@@]1(C)C(=O)[C@H](O)C3=C(C)[C@@H](OC(=O)[C@H](O)[C@@H](NC(=O)OC(C)(C)C)c4ccccc4)C[C@@](O)([C@@H](OC(=O)c4ccccc4)[C@H]21)C3(C)C [Docetaxel] was tested, and the IC10 [1] was 3 nM, the IC30 [1] was 0.06 µM and the IC70 [1] was 0.71 µM. For the same molecule, the IC50 [1] was 0.16 µM, the IC90 [1] was 35.6 µM and the IC10 [2] was 9 nM. The IC30 [2] was 0.3 µM, the IC70 [2] was 8.7 µM and the IC50 [2] was 850 nM. For the same molecule, the IC90 [2] was 21.8 µM.
For C#Cc1cccc(Nc2ncnc3cc(OCCOC)c(OCCOC)cc23)c1 [Erlotinib], the IC30 [1] was 0.9 µM, the IC70 [1] was 30.7 µM and the IC50 [1] was 10.2 µM. The IC90 [1] was 63 µM, the IC30 [2] was 1.4 µM and the IC70 [2] was 6.3 µM. For the same molecule, the IC50 [2] was 2300 nM and the IC90 [2] was 10.7 µM.
